System: diplopia and ptosis
Experiment: Case report: patient with vertical diplopia and right ptosis treated orally
Assay type: in vivo, human
From the text: A person presented with a three-week history of vertical diplopia that was incomitant and right ptosis.

Row | SMILES | relief of diplopia and ptosis (patient, three-week history of vertical diplopia and right ptosis, 60 mg three times daily) | resolution of diplopia and ptosis (same patient, after Mestinon failure, 25 mg tab four times daily) | time to resolution of diplopia and ptosis (same patient, 25 mg tab four times daily) [h]
1 | CN(C)C(=O)Oc1ccc[n+](C)c1 [Mestinon] | failed to relieve the diplopia or the ptosis |  | 
2 | CCCc1nn(C)c2c(=O)[nH]c(-c3cc(S(=O)(=O)N4CCN(C)CC4)ccc3OCC)nc12 [Sildenafil] |  | immediate resolution of dipolopia and ptosis | ≤ 24
